Here are results for 13 compounds from PubChem BioAssay (NCI).

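Each compound was tested at five concentrations against cells in 96-well plates for 48 hours. TGI: total growth inhibition.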

Some test systems named below: HOP-62 NSCLC; A498 renal; HS 578T breast; OVCAR-3 ovarian; SK-MEL-2 melanoma; BT-549 breast; KM12 colon; NCI/ADR-RES ovarian; NCI-H522 lung; SK-MEL-5 melanoma.
Holding throughout (test): NCI anticancer screen, dose series, 48 h

Consider `N#Cc1nc(C#N)n(S(=O)(=O)c2ccccc2)c1NS(=O)(=O)c1ccccc1`, for which the TGI in the assay with HOP-62 NSCLC was greater than 100 µM; in the assay with A498 renal, greater than 100 µM; in the assay with HS 578T breast, greater than 100 µM; in the assay with OVCAR-3 ovarian, greater than 100 µM; with SK-MEL-2 melanoma it was greater than 31.6 µM; in the assay on BT-549 breast it was greater than 100 µM. Further, the TGI in the assay with KM12 colon, in the assay with NCI/ADR-RES ovarian, with NCI-H522 lung and in the assay with SK-MEL-5 melanoma was greater than 100 µM throughout.
In the case of `CC(C)(C)NC(=O)CCC1C(C(=O)NC(C)(C)C)C2(Cl)C(Cl)=C(Cl)C1(Cl)C2(Cl)Cl` (stereo not given), the TGI in the assay with HOP-62 NSCLC, with A498 renal, in the assay with HS 578T breast, in the assay on OVCAR-3 ovarian, in the assay with SK-MEL-2 melanoma and in the assay on BT-549 breast was greater than 100 µM throughout. Besides, the TGI in the assay with KM12 colon, in the assay on NCI/ADR-RES ovarian, in the assay with NCI-H522 lung and with SK-MEL-5 melanoma was greater than 100 µM throughout.
In the case of `CCc1ccc2c(c1)N(CC(C)CN(C)C)c1ccccc1S2` (stereo not given), the TGI in the assay with HOP-62 NSCLC turned out to be 17.8 µM; in the assay on A498 renal, 21.8 µM; with HS 578T breast it was 18.6 µM; with OVCAR-3 ovarian, 12.4 µM; in the assay with SK-MEL-2 melanoma it was 12 µM; with BT-549 breast, 26.5 µM. Also, the TGI with KM12 colon worked out at 16.6 µM; in the assay with NCI/ADR-RES ovarian it was 17.8 µM; with NCI-H522 lung, 7.96 µM; in the assay on SK-MEL-5 melanoma it was 8.1 µM.
In the case of `O=C(O)c1cc(CCc2cc(O)ccc2O)ccc1O`, the TGI with HOP-62 NSCLC, in the assay with A498 renal, in the assay with HS 578T breast, with OVCAR-3 ovarian, in the assay on SK-MEL-2 melanoma and with BT-549 breast was greater than 100 µM throughout. Further, the TGI with KM12 colon, with NCI/ADR-RES ovarian, with NCI-H522 lung and with SK-MEL-5 melanoma was greater than 100 µM in each case.
For the compound `COc1ccc(C2=NOC(N)(c3ccc(OC)cc3)C2)cc1` (stereo not given), the TGI with HOP-62 NSCLC, in the assay with A498 renal, with HS 578T breast, in the assay with OVCAR-3 ovarian, with SK-MEL-2 melanoma and with BT-549 breast was greater than 100 µM throughout. In addition, the TGI in the assay on KM12 colon, in the assay with NCI/ADR-RES ovarian, in the assay with NCI-H522 lung and in the assay on SK-MEL-5 melanoma was greater than 100 µM each time.
For the compound `CCOC(=O)Cn1nnc2ccc(Nc3nc4ccccc4nc3-c3ccccc3)cc21`, the TGI in the assay with HOP-62 NSCLC, with A498 renal, in the assay with HS 578T breast, in the assay with OVCAR-3 ovarian, with SK-MEL-2 melanoma and with BT-549 breast was greater than 100 µM in each case. Further, the TGI with KM12 colon, with NCI/ADR-RES ovarian, with NCI-H522 lung and with SK-MEL-5 melanoma was greater than 100 µM each time.
For the compound `O=C(c1ccco1)N(C(=O)N1CCN(c2ccccc2)CC1)S(=O)(=O)c1ccccc1`, the TGI with HOP-62 NSCLC was greater than 100 µM; with A498 renal, greater than 100 µM; with HS 578T breast it was greater than 100 µM; with OVCAR-3 ovarian it was greater than 100 µM; in the assay on SK-MEL-2 melanoma it was 37.2 µM; in the assay on BT-549 breast, 87.6 µM. For the same compound, the TGI with KM12 colon is greater than 100 µM; in the assay on NCI/ADR-RES ovarian it was 55.1 µM; in the assay with NCI-H522 lung, 41.2 µM; in the assay on SK-MEL-5 melanoma, 68.3 µM.
On to `CNNC(=NS(=O)(=O)c1cc(C#N)c(NNC)cc1S)NNC`, for which the TGI in the assay with HOP-62 NSCLC, in the assay on A498 renal, in the assay on HS 578T breast, in the assay with OVCAR-3 ovarian, with SK-MEL-2 melanoma and in the assay with BT-549 breast was greater than 10 µM each time. The TGI with KM12 colon, in the assay on NCI/ADR-RES ovarian, in the assay on NCI-H522 lung and in the assay on SK-MEL-5 melanoma was greater than 10 µM throughout.
Turning to `NC(Cc1ccc(S(=O)(=O)O)cc1)C(=O)NC(Cc1ccc(S(=O)(=O)O)cc1)C(=O)NC(Cc1ccc(S(=O)(=O)O)cc1)C(=O)NC(Cc1ccc(S(=O)(=O)O)cc1)C(=O)O` (stereo not given), the TGI in the assay with HOP-62 NSCLC, in the assay with A498 renal, in the assay with HS 578T breast, in the assay on OVCAR-3 ovarian, in the assay with SK-MEL-2 melanoma and in the assay on BT-549 breast was greater than 100 µM each time. The TGI in the assay with KM12 colon, in the assay on NCI/ADR-RES ovarian, in the assay with NCI-H522 lung and with SK-MEL-5 melanoma was greater than 100 µM throughout.
`Nc1ncnc2c1ncn2[C@@H]1O[C@H](COC(c2ccccc2)(c2ccccc2)c2ccccc2)[C@@H](OC(=S)Oc2ccccc2)[C@@H]1F`: the TGI in the assay on HOP-62 NSCLC was 46 µM; in the assay with A498 renal it was 35.2 µM; in the assay with HS 578T breast it was 25.1 µM; in the assay on OVCAR-3 ovarian, 18.4 µM; in the assay with SK-MEL-2 melanoma it was 19.4 µM; in the assay on BT-549 breast it was 19.9 µM. Moreover, the TGI in the assay with KM12 colon is 29.1 µM; with NCI/ADR-RES ovarian, 18.5 µM; in the assay on NCI-H522 lung, 5.32 µM; in the assay with SK-MEL-5 melanoma it was 16.8 µM.
Regarding `C1CSCCSCCCSCCSCCCSCCSCCCSCCSC1`, the TGI in the assay on HOP-62 NSCLC, with A498 renal, in the assay on HS 578T breast, in the assay on OVCAR-3 ovarian, in the assay on SK-MEL-2 melanoma and with BT-549 breast was greater than 100 µM each time. Besides, the TGI in the assay with KM12 colon, with NCI/ADR-RES ovarian, in the assay with NCI-H522 lung and in the assay with SK-MEL-5 melanoma was greater than 100 µM each time.
`CCCn1c(=O)c(N2CCN(c3ccccc3)CC2)nc2sc3ccccc3c21`: the TGI with HOP-62 NSCLC, in the assay on A498 renal, in the assay with HS 578T breast, in the assay on OVCAR-3 ovarian, in the assay on SK-MEL-2 melanoma and in the assay on BT-549 breast was greater than 100 µM each time. The TGI with KM12 colon, in the assay on NCI/ADR-RES ovarian, with NCI-H522 lung and in the assay on SK-MEL-5 melanoma was greater than 100 µM each time.
Take `CC(=O)OCC1OC(OCCCOP(=S)(OCCC#N)OCC2OC(n3ccc(N)nc3=O)C(OC(=O)c3ccccc3)C2OC(=O)c2ccccc2)C(OC(C)=O)C(OC(C)=O)C1OC(C)=O` (stereo not given): the TGI in the assay with HOP-62 NSCLC, with A498 renal, in the assay on HS 578T breast, with OVCAR-3 ovarian, in the assay on SK-MEL-2 melanoma and in the assay with BT-549 breast was greater than 100 µM throughout. For the same compound, the TGI with KM12 colon, with NCI/ADR-RES ovarian, in the assay on NCI-H522 lung and in the assay on SK-MEL-5 melanoma was greater than 100 µM in each case.
